Laboratory results from patent publication US12208167B1 (priority 2024, dated 2025).
Where a name gives a salt, the structure may show the parent alone.

How the values were obtained:
[1] = cited from earlier work
[2] = single oral dose of 5 mg delayed release tablet, fasting
Procedure: Male and female study participants (in equal proportions) were enrolled in the study. A total of 54 normal, healthy, adult, human study participants were enrolled. All subjects either received test product (test) or reference product (reference) in each period according to the randomization schedule after ensuring maintenance of pre-dose restrictions (fasting for 10 hours prior to administration in sitting posture with 240±2 mL of drinking water at ambient temperature).
A washout period of 7 days was observed between both study periods. Study restrictions with respect to fluid intake and sitting positions were implemented during the restriction periods throughout the study in all periods.
Study participants were instructed not to break, cut, and chew the tablet (test or reference) but to swallow whole and were asked to take it with the specified quantity of water. Water intake was not allowed for 1 hour before dosing until 1 hour after dosing except while administration of the dose. After dosing, the participants remained in sitting position for first two hours. On dosing days, meals were given as per the following schedule. […]
The actual post-dose time of collection was used in the calculation of the above pharmacokinetic parameters. Drug concentrations that are below limit of quantification (BLQ) were treated as “zero” in all pharmacokinetic and statistical calculations. […]

[3] = cited from earlier work; remark: listed apart in the source

| SMILES | mean volume of distribution ([1]; human, in vivo) | tmax ([1]; oral galantamine) | plasma benzgalantamine concentration profile after test tablet [2] | gastrointestinal adverse events ([3]; intranasal, twice daily dose of 11 mg) | tolerability ([3]; intranasal, up to a twice daily dose of 22 mg) | administered compound not cleaved to galantamine, observed in blood ([3]; nasal administration, previous studies) |
| --- | --- | --- | --- | --- | --- | --- |
| COc1ccc2c3c1O[C@H]1C[C@@H](O)C=C[C@@]31CCN(C)C2 [galantamine, (4aS,6R,8aS)-3-Methoxy-11-methyl-4a,5,9,10,11,12-hexahydro-6H-benzofuro[3a,3,2-ef][2]benzazepin-6-ol] | 175 L | about 1 hour |  |  |  |  |
| COc1ccc2c3c1OC1C[C@@H](OC(=O)c4ccccc4)C=C[C@@]31CCN(C)C2 (stereo partly drawn) [benzgalantamine, (4aS,6R,8aS)-4a,5,9,10,11,12-hexahydro-3-methoxy-11-methyl-6H[1]benzofuro[3a,3,2-ef][2]benzazepin-6 benzoate gluconate salt] |  |  | almost all values are zero or below limit of quantification (BLQ) at all times | No gastrointestinal adverse events were observed | well tolerated | up to 10% |
